Assay results published in patent US12558325B2, “Methods for improving neurological diseases and disorders” (CuraSen Therapeutics, Inc., priority 2019, dated 2026).
Entries after “also recorded” stand apart in the source; their conditions may differ.

How the values were obtained:
Ts65Dn mice = details: increasing brain NE levels; cited from earlier work
patients = test: Cerebral blood flow relative to baseline after a single dose (Example 1); assay type: in vivo, human
healthy subjects [1] = test: ASL MRI cerebral perfusion before and after a single dose (Example 3); assay type: in vivo, human
Method: In a clinical study, healthy subjects were administered doses of clenbuterol ranging from 20 to 160 μg and ASL MRI was conducted prior to and after dosing with an objective to ascertain whether this neuroimaging method enables the detection of a clinically relevant CNS signal.
In a region of interest (ROI) analysis focusing on the hippocampus, which is well understood to be affected in neurodegenerative disorders, a single dose of 80 μg of clenbuterol causes a robust increase in perfusion (see FIG. 7). […] Taken together with other cohorts in which ASL MRI was conducted, a clear dose response relationship is seen between dose of clenbuterol and cerebral perfusion (FIG. 8). […] Our hypothesis is that by improving cerebral perfusion, particularly in areas of the brain that are relevant for symptoms that are commonly found in neurodegenerative diseases such as PD and AD, the administration of a β2-AR agonist will have a positive effect on clinically relevant symptoms such as memory and cognition.

healthy subjects [2] = test: Adaptive tracking test (visuomotor coordination and vigilance); assay type: in vivo, human; details: single dose of 160 μg clenbuterol
From the text: Adaptive tracking measures visuomotor coordination and vigilance. In this test, the subject uses a joystick to move a small dot so that it stays within a continuously moving circle on a computer screen (Boland 1984). During the test, the speed of the circle is adjusted in response to the subject's ability to keep the dot in the circle, ensuring that the test is adapted to the individual subject. […] The improvement shown by subjects is in the same range as that seen with subjects treated with the acetylcholinesterase inhibitor donepezil, which is in clinical use for the treatment of mild to moderate AD (Groeneveld 2016).

subjects = test: Visual verbal learning test (VVLT); assay type: in vivo, human; details: crossover study; for effect on the VVLT (learning and memory): 3 agents plus placebo
Method: The visual verbal learning test (VVLT) is a test for learning and memory (de Haas 2009). Subjects are presented 30 words on a screen, one at a time, for 1 second with a 1-second interval between words over a total of 1 minute. This is repeated in 3 trials. After each trial, subjects are asked to recall as many words as they can. After the third trial, there is a delay of 2.5 hours and subjects are then tested once for delayed recall. […] Since this was a crossover study, everyone who completed Part A was dosed with the 3 agents plus placebo.

N[C@H](C(=O)O)[C@H](O)c1ccc(O)c(O)c1 [L-DOPS, L-threo-3,4-dihydroxyphenylserine]
contextual learning (Ts65Dn mice): restored contextual learning

CC(C)(C)NCC(O)c1cc(Cl)c(N)c(Cl)c1 (stereo not shown) [clenbuterol]
cerebral blood flow (CBF) relative to the baseline (patients; single dose of clenbuterol 160 μg): robust global increase; also recorded: positive increase
cerebral blood flow (CBF) relative to the baseline (patients; single dose of clenbuterol ranging from 30 to 160 μg, tracked over 3 days): robust global increase
cerebral perfusion increase as measured by CBF (healthy subjects [1]; clenbuterol dose of 40 μg): minimal increase
cerebral perfusion increase as measured by CBF (healthy subjects [1]; clenbuterol doses below 30 μg): do not produce significant cerebral perfusion increases
improvements in perfusion in brain areas relevant to neurodegenerative disorders (healthy subjects [1]; doses of 80 and 160 μg clenbuterol): ~25%
global perfusion (healthy subjects [1]; doses of 80 and 160 μg clenbuterol, ASL MRI): robust, global increase
increase in hippocampal perfusion, on average (healthy subjects [1]; single dose of 80 μg clenbuterol, 6 healthy subjects aged 44 to 52, ROI hippocampus): 25%
cerebral perfusion (global; hippocampus, thalamus, cortex) (healthy subjects [1]; single dose of 160 μg clenbuterol, ASL MRI): robust global increase
performance in adaptive tracking (percent time dot kept within moving circle) (healthy subjects [2]): improved
cognition as measured by adaptive tracking and word recall (healthy subjects [2]; healthy subjects, preliminary data): improves cognition
VVLT performance, immediate recall (Trial 1) (subjects): improved performance
effect on the VVLT (learning and memory) (subjects): positive effects
VVLT performance, delayed recall (subjects; recall after delay of 2.5 hours): improved performance

CC(C)NCC(O)COc1cccc2[nH]ccc12 (stereo not shown) [pindolol]
effect on the VVLT (learning and memory) (subjects): detrimental effect

CC(C)(C)NCC(O)c1ccc(O)c(CO)c1 (stereo not shown) [salbutamol]
effect on the VVLT (learning and memory) (subjects): positive effects
